Patent publication US9629834B2, “Medicinal composition for inhibiting formation and/or enlargement of cerebral aneurysm or shrinking same” (KYOTO UNIVERSITY, priority 2013, dated 2017)

How the values were obtained:
MCP-1 = assay: Suppression of expression of MCP-1 at cerebral artery bifurcation (immunostaining); format: in vivo, SD rat; conditions: vs group without drug, FIG. 4
cerebral aneurysm model = assay: Inhibitory effect on formation of cerebral aneurysm in cerebral aneurysm model (EvG staining, size of aneurysm); format: in vivo, SD rat; conditions: 0.03 mg/5 mL or 0.1 mg/5 mL suspension, 5 mL/kg, forced oral, once a day, Day 1 to Day 27; Day 28; FIG. 5
Protocol: A rat model of cerebral aneurysm was prepared according to the method disclosed on the literature by Hashimoto et al. (Surgical Neurology 1978, Vol. 10, p. 3-8). Namely, 50 mg/kg of pentobarbital was administrated intraperitoneally to a 7-week-old male SD rat, and the left common carotid artery and the left renal artery were ligated by using 10-0 nylon thread under anesthesia (this is referred to as the surgery for inducing cerebral aneurysm). From the day after surgery (Day 1), the rat was reared with being fed a high-salt diet. During a rearing period, the rat was given free access to water. Forced oral administration of 0.03 mg/5 mL or 0.1 mg/5 mL of the suspension of Compound 1 to the cerebral aneurysm model was conducted once a day at a dose of 5 mL/kg from the day after surgery, i.e., 1 day after surgery (Day 1) to 27 days after surgery (Day 27). It should be noted that forced oral administration of the 0.5% MC solution (0 mg/5 mL of the suspension of Compound 1) to the cerebral aneurysm model was conducted once a day at a dose of 5 mL/kg. The group of these rats was defined as a vehicle group. 28 Days after surgery (Day 28), the right olfactory artery/anterior cerebral artery bifurcation containing cerebral aneurysm was extirpated and was fixed with 4% paraformaldehyde, and then the solution was replaced with a 30% sucrose solution, and thereafter, the extirpated bifurcation was frozen to prepare a specimen of a frozen section having a thickness of 5 μm, by similar procedures to the steps 1) and 2) of the method of Reference Example 2. This specimen was subjected to EvG staining and the formation of cerebral aneurysm was confirmed. The size of cerebral aneurysm was measured and evaluation was conducted. The maximum diameter (Maximum) represents the maximum distance between internal elastic lamina disruption sites observed by EvG staining, the height “Height” represents the maximum value of height defined as the length of the perpendicular line drawn from the line connecting the two ends of internal elastic lamina, and the mean diameter “Mean” represents the mean value of the maximum diameter and the height. This evaluation was conducted on all the rats (8 or 9 rats) of each of the groups, and the mean value of each of the groups was calculated. The administration of 0.1 mg/5 mL of a suspension of Compound 2 to the cerebral aneurysm model was started on the day of the surgery (Day 0) at a dose of 5 mL/kg, and forced oral administration was conducted once a day until 26 days after surgery (Day 26). The size of cerebral aneurysm was measured by using the protocol of Example 1. […] The size of cerebral aneurysm was measured by using the protocol of Example 1. […] The size of cerebral aneurysm was measured by using the protocol of Example 1.

macrophages = assay: Macrophages infiltrating cerebral aneurysm walls in the enlargement study; format: in vivo, SD rat; conditions: 0.1 mg/5 mL suspension, forced oral, once a day from Day 7; 49 days after surgery (Week 7); FIG. 10
Protocol: Immunostaining of macrophages (F4/80-positive cells) was conducted on the prepared section as described below. As a primary antibody solution, a solution in which a rat anti-F4/80 antibody [BM8](AB16911: Abcam) was diluted with a phosphate buffer by 100 times was prepared. As a secondary antibody solution, a solution in which an alexa 488-conjugated donkey anti-rat IgG antibody (Invitrogen) was diluted with a phosphate buffer by 100 times was prepared. The section was allowed to react in the primary antibody solution at 4° C. for 16 hours, washed with a phosphate buffer, and thereafter, was allowed to react in the secondary antibody solution at room temperature for 1 hour. […] In addition, macrophages (F4/80-positive cells) stained green at the peripheries of nuclei (blue) were observed therein (in monochrome FIG. 3A, portions with a higher degree of whiteness). Under the observation with a confocal microscope, the number of macrophages was counted in an area of 100 μm square centered around the cerebrovascular bifurcation where cerebral aneurysm developed. The measurement was conducted on five rats and the mean value was calculated. […] In addition, 49 days after surgery (Week 7), the number of macrophages infiltrating cerebral aneurysm walls was counted according to the procedure of Reference Example 4 under the observation with a confocal microscope.

[1] = test system: Human carotid artery endothelial cells HCtAEC; assay: Permeability of endothelial cells (Transwell, FITC-dextran); format: cell-based; conditions: 0.1 nM, 1 nM, 10 nM, or 100 nM; 60 minutes pre-culture; fluorescence after 5, 60 and 210 minutes; FIG. 14
Protocol: Human carotid artery endothelial cells […] (Cell Applications) were seeded in the upper compartment of Transwell (diameter: 6.5 mm, pore size: 0.4 μm, collagen-Coated: Corning) so that the cell density was 1×10^5 cells/well, and the cells were cultured overnight in MesoEndo Growth Medium (Cell Applications) under a 5% CO2 atmosphere at 37° C. The medium was replaced with Endothelial Cell Serum-Free Defined Medium (Cell Applications), and the cells were further cultured overnight under the CO2 atmosphere at 37° C. Then, Compound 1 was added to the upper compartment and the lower compartment of Transwell so that the final concentration was 0 nM, 0.1 nM, 1 nM, 10 nM, or 100 nM, and the cells were cultured continuously. The well to which Compound 1 was not added was defined as a control. After culturing for 60 minutes, 250 μg/mL of fluorescein isothiocyanate (FITC)-dextran (2,000 kDa: Sigma-Aldrich) was added to the upper compartment of Transwell, and the amount of FITC-dextran which permeated into the lower compartment was determined by measuring the fluorescence intensity of the medium in the lower compartment after 5 minutes, 60 minutes, and 210 minutes.

C[C@H](Oc1ccc(-c2nc(-c3ccc4[nH]cnc4c3)no2)cc1C(F)(F)F)C(F)(F)F.Cl [Compound 1, 5-{5-[3-(trifluoromethyl)-4-{[(2S)-1,1,1-trifluoropropan-2-yl]oxy}phenyl]-1,2,4-oxadiazol-3-yl}-1H-benzimidazole hydrochloride]
expression of MCP-1 in cerebral aneurysm walls (MCP-1; 0.03 mg/kg oral once a day): suppressed as compared to the group without being administered a drug
expression of MCP-1 in cerebral aneurysm walls (MCP-1; 0.1 mg/kg oral once a day): suppressed as compared to the group without being administered a drug
formation of cerebral aneurysm (size: Maximum, Height, Mean) (cerebral aneurysm model): inhibited the formation of cerebral aneurysm
number of macrophages infiltrating cerebral aneurysm walls (macrophages): decreased the number of macrophages at the site where cerebral aneurysm was induced
amount of FITC-dextran which permeated into the lower compartment (permeability of endothelial cells) [1]: decreased the amount of FITC-dextran which permeated into the lower compartment in a concentration-dependent manner
